According to patent US12187713B2, “Immunomodulators, compositions and methods thereof” (Betta Pharmaceuticals Co., Ltd, priority 2019, dated 2025):

biological target: PD-1/PD-L1 (Homo sapiens (Human), UniProt Q9NZQ7); test: PD-1/PD-L1 Binding Assay (Alphascreen); details: numeric values
Method in brief: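 PD-1/PD-L1 binding detected by anti-6×His acceptor and streptavidin donor beads after 120 min in the dark at 25 °C. Beforehand, the two proteins were incubated 15 min at 25 °C with inhibitor at 0.015–300 nM (1% DMSO). IC50 comes from a log concentration–response curve.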

Chain of PD-1/PD-L1 (Q9NZQ7 19-238): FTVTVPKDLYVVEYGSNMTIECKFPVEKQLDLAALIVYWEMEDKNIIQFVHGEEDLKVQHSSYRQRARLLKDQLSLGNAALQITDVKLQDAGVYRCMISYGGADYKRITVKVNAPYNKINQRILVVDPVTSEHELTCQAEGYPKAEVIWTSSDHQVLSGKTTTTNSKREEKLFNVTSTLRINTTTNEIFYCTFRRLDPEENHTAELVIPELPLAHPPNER

Q: Which IC50 does the source give for `Cc1c(-c2nc3cc(CNCCO)c(OC(F)F)cc3o2)cccc1-c1cccc(-c2nc3cc(CN4CCC[C@H]4C(=O)O)c(OC(F)F)cc3o2)c1C` [Example 7, ((6-(difluoromethoxy)-2-(3′-(6-(difluoromethoxy)-5-(((2-hydroxyethyl)amino)methyl)benzo[d]oxazol-2-yl)-2,2′-dimethyl-[1,1′-biphenyl]-3-yl)benzo[d]oxazol-5-yl)methyl)-L-proline] here?
A: 0.61 nM

Q: Which IC50 does the source give for `Cc1c(-c2ccc(CN3CCCC3)c(C(=O)O)c2)cccc1-c1cccc(-c2nc3cc(CN4CCC[C@H]4C(=O)O)c(OC(F)F)cc3o2)c1C` [Example 236, ((2-(3″-carboxy-2,2′-dimethyl-4″-(pyrrolidin-1-ylmethyl)-[1,1′:3′,1″-terphenyl]-3-yl)-6-(difluoromethoxy)benzo[d]oxazol-5-yl)methyl)-L-proline] here?
A: 290 nM

Q: `Cc1c(Nc2nccc3cc(CN4CCCC[C@H]4C(=O)O)cnc23)cccc1-c1cccc(-c2nc3cc(CN4CCC[C@H]4C(=O)O)c(OC(F)F)cc3o2)c1C` [Example 173, (S)-1-((8-((3′-(5-(((S)-2-carboxypyrrolidin-1-yl)methyl)-6-(difluoromethoxy)benzo[d]oxazol-2-yl)-2,2′-dimethyl-[1,1′-biphenyl]-3-yl)amino)-1,7-naphthyridin-3-yl)methyl)piperidine-2-carboxylic acid] was tested. Which IC50 did it give?
A: 0.93 nM

Q: How did the IC50 turn out when `Cc1c(-c2nc3cc(CN4CC5(C4)CC5(F)F)c(OC(F)F)cc3o2)cccc1-c1cccc(-c2nc3cc(CN4CCC[C@H]4C(=O)O)c(OC(F)F)cc3o2)c1C` [Example 76, ((2-(3′-(5-((1,1-difluoro-5-azaspiro[2.3]hexan-5-yl)methyl)-6-(difluoromethoxy)benzo[d]oxazol-2-yl)-2,2′-dimethyl-[1,1′-biphenyl]-3-yl)-6-(difluoromethoxy)benzo[d]oxazol-5-yl)methyl)-L-proline] was run?
A: 32 nM

Q: With `Cc1c(-c2nc3cc(CN4CC[C@H](C(=O)O)C4)c(OC(F)F)cc3o2)cccc1-c1cccc(-c2nc3cc(CN4CC(C)(C)C4)c(OC(F)F)cc3o2)c1C` [Example 86, (S)-1-((6-(difluoromethoxy)-2-(3′-(6-(difluoromethoxy)-5-((3,3-dimethylazetidin-1-yl)methyl)benzo[d]oxazol-2-yl)-2,2′-dimethyl-[1,1′-biphenyl]-3-yl)benzo[d]oxazol-5-yl)methyl)pyrrolidine-3-carboxylic acid] as the compound, how does the IC50 read?
A: 11 nM

Q: For `CCNCc1cc2nc(-c3cccc(-c4cccc(-c5nc6cc(CN7CCC[C@H]7C(=O)O)c(OC(F)F)cc6o5)c4C)c3C)oc2cc1OC(F)F` [Example 21, ((6-(difluoromethoxy)-2-(3′-(6-(difluoromethoxy)-5-((ethylamino)methyl)benzo[d]oxazol-2-yl)-2,2′-dimethyl-[1,1′-biphenyl]-3-yl)benzo[d]oxazol-5-yl)methyl)-L-proline], which IC50 is on record?
A: 0.59 nM

Q: How did the IC50 turn out when `Cc1c(-c2ccc(CN3CCCC3)c(Cl)c2)cccc1-c1cccc(-c2nc3cc(CN4CCC[C@H]4C(=O)O)c(OC(F)F)cc3o2)c1C` [Example 229, ((2-(3″-chloro-2,2′-dimethyl-4″-(pyrrolidin-1-ylmethyl)-[1,1′:3′,1″-terphenyl]-3-yl)-6-(difluoromethoxy)benzo[d]oxazol-5-yl)methyl)-L-proline] was run?
A: 6.9 nM

Q: With `Cc1c(-c2nc3cc(CNCCCNCCO)c(OC(F)F)cc3o2)cccc1-c1cccc(-c2nc3cc(CN4CCC[C@H]4C(=O)O)c(OC(F)F)cc3o2)c1C` [Example 58, ((6-(difluoromethoxy)-2-(3′-(6-(difluoromethoxy)-5-(((3-((2-hydroxyethyl)amino)propyl)amino)methyl)benzo[d]oxazol-2-yl)-2,2′-dimethyl-[1,1′-biphenyl]-3-yl)benzo[d]oxazol-5-yl)methyl)-L-proline] as the compound, how does the IC50 read?
A: 0.79 nM

same assay, conditions: range symbols

Q: `Cc1c(-c2nc3cc(CN4CCC[C@@H]4C(=O)O)c(OC(F)F)cc3o2)cccc1-c1cccc(-c2nc3cc(CN4CCCC4)cc(C#N)c3o2)c1C` [Example 145, ((2-(3′-(7-cyano-5-(pyrrolidin-1-ylmethyl)benzo[d]oxazol-2-yl)-2,2′-dimethyl-[1,1′-biphenyl]-3-yl)-6-(difluoromethoxy)benzo[d]oxazol-5-yl)methyl)-D-proline] was tested. Which IC50 did it give?
A: 0.1 to 5 nM

Q: For `Cc1c(-c2nc3cc(CN4CCC[C@H]4C(=O)O)c(OC(F)F)cc3o2)cccc1-c1cccc(-c2nc3cc(CN4CC(N5CC(C)(O)C5)C4)cc(C#N)c3o2)c1C` [Example 150, ((2-(3′-(7-cyano-5-((3-hydroxy-3-methyl-[1,3′-biazetidin]-1′-yl)methyl)benzo[d]oxazol-2-yl)-2,2′-dimethyl-[1,1′-biphenyl]-3-yl)-6-(difluoromethoxy)benzo[d]oxazol-5-yl)methyl)-L-proline], which IC50 is on record?
A: 0.1 to 5 nM

Q: `Cc1c(-c2nc3c(o2)CCN(CC2CCC(=O)N2)C3)cccc1-c1cccc(-c2nc3cc(CN4CCC[C@H]4C(=O)O)c(OC(F)F)cc3o2)c1C` (stereo partly shown) [Example 193, ((6-(difluoromethoxy)-2-(2,2′-dimethyl-3′-(5-((5-oxopyrrolidin-2-yl)methyl)-4,5,6,7-tetrahydrooxazolo[4,5-c]pyridin-2-yl)-[1,1′-biphenyl]-3-yl)benzo[d]oxazol-5-yl)methyl)proline] was tested. Which IC50 did it give?
A: 5 to 50 nM

Q: Which IC50 does the source give for `Cc1c(-c2nc3cc(CN4CCC[C@H]4C(=O)O)c(OC(F)F)cc3o2)cccc1-c1cccc(-c2nc3cc(CN4CC[C@H](Cl)C4)cc(C#N)c3o2)c1C` [Example 261, ((2-(3′-(5-(((S)-3-chloropyrrolidin-1-yl)methyl)-7-cyanobenzo [d]oxazol-2-yl)-2,2′-dimethyl-[1,1′-biphenyl]-3-yl)-6-(difluoromethoxy)benzo[d]oxazol-5-yl)methyl)-L-proline] here?
A: 0.1 to 5 nM

Q: How did the IC50 turn out when `Cc1c(-c2nc3cc(CN4CC(=CC#N)C4)c(OC(F)F)cc3o2)cccc1-c1cccc(-c2nc3cc(CN4CCC[C@H]4C(=O)O)c(OC(F)F)cc3o2)c1C` [Example 82, ((2-(3′-(5-((3-(cyanomethylene)azetidin-1-yl)methyl)-6-(difluoromethoxy)benzo[d]oxazol-2-yl)-2,2′-dimethyl-[1,1′-biphenyl]-3-yl)-6-(difluoromethoxy)benzo[d]oxazol-5-yl)methyl)-L-proline] was run?
A: 0.1 to 5 nM

Q: For `Cc1c(-c2nc3cc(CN4CCC[C@H]4C(=O)O)c(OC(F)F)cc3o2)cccc1-c1cccc(-c2nc3cc(CN4CCC(C(N)=O)C4)cc(C#N)c3o2)c1C` (stereo partly drawn) [Example 315, ((2-(3′-(5-((3-carbamoylpyrrolidin-1-yl)methyl)-7-cyanobenzo [d]oxazol-2-yl)-2,2′-dimethyl-[1,1′-biphenyl]-3-yl)-6-(difluoromethoxy)benzo[d]oxazol-5-yl)methyl)-L-proline], which IC50 is on record?
A: 0.1 to 5 nM

Q: Which IC50 does the source give for `Cc1c(-c2nc3cc(CN4CCC[C@H]4C(=O)O)c(OC(F)F)cc3o2)cccc1-c1cccc(-c2nc3cc(CN4CC5(CCC(=O)N5)C4)cc(C#N)c3o2)c1C` [Example 151, ((2-(3′-(7-cyano-5-((6-oxo-2,5-diazaspiro[3.4]octan-2-yl)methyl)benzo [d]oxazol-2-yl)-2,2′-dimethyl-[1,1′-biphenyl]-3-yl)-6-(difluoromethoxy)benzo[d]oxazol-5-yl)methyl)-L-proline] here?
A: 0.1 to 5 nM

Q: With `Cc1c(-c2nc3cc(CN4CCC[C@H]4C(=O)O)c(OC(F)F)cc3o2)cccc1-c1cccc(-c2nc3cc(CN4CCC4(C)O)c(OC(F)F)cc3o2)c1C` (stereo partly drawn) [Example 37, ((6-(difluoromethoxy)-2-(3′-(6-(difluoromethoxy)-5-((2-hydroxy-2-methylazetidin-1-yl)methyl)benzo[d]oxazol-2-yl)-2,2′-dimethyl-[1,1′-biphenyl]-3-yl)benzo[d]oxazol-5-yl)methyl)-L-proline] as the compound, how does the IC50 read?
A: 0.1 to 5 nM

Q: For `Cc1c(-c2nc3cc(CN4CCC[C@H]4C(=O)O)c(OC(F)F)cc3o2)cccc1-c1cccc(-c2ccc(CN3CCCC3)nc2F)c1C` [Example 270, ((6-(difluoromethoxy)-2-(3′-(2-fluoro-6-(pyrrolidin-1-ylmethyl)pyridin-3-yl)-2,2′-dimethyl-[1,1′-biphenyl]-3-yl)benzo[d]oxazol-5-yl)methyl)-L-proline], which IC50 is on record?
A: 5 to 50 nM

Q: With `CCNCc1cc2nc(-c3cccc(-c4cccc(-c5nc6cc(CN7CCC[C@H]7C(=O)O)c(OC(F)F)cc6o5)c4C)c3C)oc2cc1Cl` [Example 97, ((2-(3′-(6-chloro-5-((ethylamino)methyl)benzo[d]oxazol-2-yl)-2,2′-dimethyl-[1,1′-biphenyl]-3-yl)-6-(difluoromethoxy)benzo[d]oxazol-5-yl)methyl)-L-proline] as the compound, how does the IC50 read?
A: 0.1 to 5 nM

Q: `Cc1c(Nc2nccc3cc(CNCC4CCC(=O)N4)cnc23)cccc1-c1cccc(-c2nc3cc(CN4CCC[C@H]4C(=O)O)c(OC(F)F)cc3o2)c1C` (stereo partly shown) [Example 179, ((6-(difluoromethoxy)-2-(2,2′-dimethyl-3′-((3-((((5-oxopyrrolidin-2-yl)methyl)amino)methyl)-1,7-naphthyridin-8-yl)amino)-[1,1′-biphenyl]-3-yl)benzo[d]oxazol-5-yl)methyl)proline] was tested. Which IC50 did it give?
A: 0.1 to 5 nM

Q: How did the IC50 turn out when `Cc1c(-c2nc3cc(CN4CCC[C@H]4C(=O)O)c(OC(F)F)cc3o2)cccc1-c1cccc(-c2nc3cc(CNCC4CNC4)cc(C#N)c3o2)c1C` [Example 157] was run?
A: 0.1 to 5 nM

Q: Which IC50 does the source give for `Cc1c(-c2nc3cc(CN4CC(C)(CO)C4)c(OC(F)F)cc3o2)cccc1-c1cccc(-c2nc3cc(CN4CCC[C@H]4C(=O)O)c(OC(F)F)cc3o2)c1C` [Example 78, ((6-(difluoromethoxy)-2-(3′-(6-(difluoromethoxy)-5-((3-(hydroxymethyl)-3-methylazetidin-1-yl)methyl)benzo[d]oxazol-2-yl)-2,2′-dimethyl-[1,1′-biphenyl]-3-yl)benzo[d]oxazol-5-yl)methyl)-L-proline] here?
A: 0.1 to 5 nM

Q: Which IC50 does the source give for `Cc1c(-c2nc3cc(CN4CCC[C@H]4C(=O)O)c(OC(F)F)cc3o2)cccc1-c1cccc(-c2nc3cc(CN4CCCCC4CCO)cc(C#N)c3o2)c1C` (stereo partly drawn) [Example 135, ((2-(3′-(7-cyano-5-((2-(2-hydroxyethyl)piperidin-1-yl)methyl)benzo[d]oxazol-2-yl)-2,2′-dimethyl-[1,1′-biphenyl]-3-yl)-6-(difluoromethoxy)benzo[d]oxazol-5-yl)methyl)-L-proline] here?
A: 0.1 to 5 nM
